Reference: PubChem BioAssay (NCI)
“And” between values parts separate entries of the source, which are not always exact repeats. Equal entries are not always repeated.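 Cultured in 96-well plates, cells were exposed to test compound for 48 hours across five concentrations. Here, GI50 denotes the concentration required for 50% inhibition of growth. TGI: concentration producing complete growth inhibition.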

Columns and labels:
Assay in all cases: DTP human tumour cell line panel, 48 h
HCT-15 colon = tested on: HCT-15 colon
M14 melanoma = tested on: M14 melanoma
UACC-62 melanoma = tested on: UACC-62 melanoma
A498 renal = tested on: A498 renal
SF-268 CNS = tested on: SF-268 CNS
MDA-N = tested on: MDA-N
OVCAR-3 ovarian = tested on: OVCAR-3 ovarian
SR leukemia = tested on: SR leukemia
MDA-MB-231 breast = tested on: MDA-MB-231 breast
UACC-257 melanoma = tested on: UACC-257 melanoma

| SMILES | TGI (HCT-15 colon) | TGI (M14 melanoma) | TGI (UACC-62 melanoma) [µM] | TGI (A498 renal) | TGI (SF-268 CNS) [µM] | TGI (MDA-N) [µM] | TGI (OVCAR-3 ovarian) [µM] | TGI (SR leukemia) [µM] | TGI (MDA-MB-231 breast) [µM] | TGI (UACC-257 melanoma) [µM] | GI50 (OVCAR-3 ovarian) [µM] | GI50 (SR leukemia) [µM] | GI50 (HCT-15 colon) [µM] | GI50 (M14 melanoma) [µM] | GI50 (UACC-62 melanoma) [µM] | GI50 (A498 renal) [µM] | GI50 (MDA-MB-231 breast) [µM] | GI50 (SF-268 CNS) [µM] | GI50 (UACC-257 melanoma) [µM] |
| --- | --- | --- | --- | --- | --- | --- | --- | --- | --- | --- | --- | --- | --- | --- | --- | --- | --- | --- | --- |
| CCCCCc1cc(OC(=O)c2c(O)cc(OC)cc2CCCCC)cc(O)c1C(=O)O | 30.7 µM | 38.1 µM | 28.9 | 35.6 µM | 30 |  |  |  |  |  |  |  |  |  |  |  |  |  |  |
| CC(C)(C)OC(=O)n1cc(C2CNC(=O)C23CCC(=O)N3Cc2ccccc2)c2ccccc21 (centres undefined) |  | 67.4 µM | 38.7 | 35.3 µM | > 100 | 85.5 | 46.8 | > 100 | 39.9 | 65.2 |  |  |  |  |  |  |  |  |  |
| CC(C)C[C@H](NC(=O)[C@H](Cc1cccc2ccccc12)NC(=O)N1CCOCC1)B(O)O | 0.303 µM and 1.76 µM | 0.00154 µM and < 0.0125 µM | 0.00338 | 0.0288 µM and < 0.0143 µM | 0.00328 |  | 0.00171 | 0.013 | 0.00398 | 0.00495 | 0.000519 | 0.00276 | 0.0363 | 0.000443 | 0.00129 | 0.000871 | 0.00188 | 0.000925 | 0.00172 |
| COc1ccc2[nH]c3c(c2c1)CCN(C)CC3 | > 100 µM | > 100 µM | > 100 | > 100 µM | > 100 |  | > 100 |  |  | > 100 |  |  |  |  |  |  |  |  |  |
| O=C(CSc1nc2ccccc2[nH]1)Nc1ccc(-c2nc3ccccc3s2)c(Cl)c1 | > 100 µM |  |  | 52.7 µM | 4.37 |  | 4.55 |  |  | > 100 | 2.17 |  | 23.8 |  |  | 2.22 |  | 1.88 | 4.08 |
| CC(=O)c1ccc(N=Nc2ccc3nonc3c2N)cc1 | > 100 µM | > 100 µM | > 100 |  | > 100 | > 100 | > 100 | > 100 | > 100 | > 100 |  |  |  |  |  |  |  |  |  |
| CC(=O)OC[C@H]1O[C@@H](O[C@H]2[C@H](OC(C)=O)C=CO[C@@H]2COC(C)=O)C(OC(C)=O)[C@H]2OC(C)(C)O[C@H]21 (some centres undefined) | > 100 µM | > 100 µM | > 100 |  | > 100 |  | > 100 | > 100 | > 100 | > 100 |  |  |  |  |  |  |  |  |  |
| CCCCOC(=O)CNC(=O)OCCCCC#CC#CCCCCOC(=O)NCC(=O)OCCCC |  | > 100 µM | > 100 | > 100 µM | > 100 |  |  | > 100 |  | > 100 |  |  |  |  |  |  |  |  |  |
| COc1cccc(N2C(=O)C3c4[nH]c5ccccc5c4C4c5ccccc5CCC4C3C2=O)c1 (centres undefined) | > 10 µM | > 10 µM | > 10 | 8.53 µM | > 10 | > 10 | > 10 | > 4.01 | > 10 |  |  |  |  |  |  |  |  |  |  |
| O=C(c1ccc(Cl)cc1)c1ccc(OCC(=O)N2CCN(c3ccccc3)CC2)cc1 | > 100 µM | > 100 µM | > 100 | 78.9 µM | > 100 |  | > 100 | > 100 |  | > 100 |  |  |  |  |  |  |  |  |  |
| CCOC(=O)/C(O)=C1\C(=O)N(C)C(=O)C1c1ccc(OC)c(OC)c1 (centres undefined) | > 100 µM |  | > 100 | > 100 µM | > 100 |  | > 100 |  |  | > 100 |  |  |  |  |  |  |  |  |  |
| CC(=O)O[C@H]1CC[C@@]2(C)C(=CC[C@@H]3[C@@H]2CC[C@]2(C)C(c4cccnc4)=CC[C@@H]32)C1 | > 100 µM | > 100 µM |  | 74 µM | > 100 |  | > 100 | 8.35 | 33.7 | > 100 | 5.52 | 3.01 | 4.48 | 5.67 |  | 10.4 | 5.23 | 9.61 | 28.1 |
| COc1ccc2c(c1)O[C@@H]1C(O)Oc3cc(OC)c(OC)cc3[C@]1(O)C2=O (some centres undefined) | > 100 µM | > 100 µM | > 100 | > 100 µM | > 100 | > 100 | > 100 |  | > 100 | > 100 |  |  |  |  |  |  |  |  |  |
| C=CC(=O)N1C/C(=C\c2ccc(N(C)C)cc2)C(=O)/C(=C/c2ccc(N(C)C)cc2)C1 | > 100 µM | > 100 µM | > 100 | > 100 µM | > 100 | 78.7 | > 100 |  | > 100 | > 100 |  |  |  |  |  |  |  |  |  |
| Cc1ccc(C(=O)N(C2CCCCC2)C2CCCCC2)cc1N=NN(C)C | 27.1 µM | 32.6 µM | 21.6 |  | 27.7 | 28.3 | 19.2 | 76.7 | 25.7 | 28 |  |  |  |  |  |  |  |  |  |
| CCN1CC(C)Cn2c(=O)[nH]c3cc(Br)cc1c32 (centres undefined) | > 100 µM | > 100 µM | > 100 | 80.3 µM | > 100 | 51.8 | 77.5 |  | > 100 | > 100 |  |  |  |  |  |  |  |  |  |
| Cc1ccc(F)cc1NC(=O)O/N=C(\Cl)C(C)C | 3.66 µM | 12.2 µM | 39.7 | 40.9 µM | 62.8 | 11.8 | 13.9 |  | 32.8 | 46.7 |  |  |  |  |  |  |  |  |  |
| CN(C)C(=S)N/N=C\C=N/NC(=S)N(C)C | > 100 µM | 3.22 µM | 22 | 34.5 µM | > 20.2 | > 100 | > 100 |  | > 100 | > 100 |  |  |  |  |  |  |  |  |  |
| S=C1c2ccccc2NC(=NC2CCCC2)C2CSCN12 (centres undefined) | > 100 µM | > 100 µM | > 100 | > 100 µM | > 100 |  | > 100 | > 100 | > 100 | > 100 |  |  |  |  |  |  |  |  |  |
| COc1cccc2cc(C)c(C(=O)c3ccccc3)nc12 | > 100 µM | > 100 µM | > 100 |  | > 100 |  | > 100 |  |  | > 100 |  |  |  |  |  |  |  |  |  |
| Cn1ccnc1S/C(=C\C=C(C#N)C#N)c1ccc(Cl)cc1 | 9.11 µM | 5.02 µM | 9.36 | 3.16 µM | 14.4 |  | 5.29 | 0.367 | 15 | 5.5 |  |  |  |  |  |  | 4.15 |  |  |
| N#CC1=C2Sc3ccccc3N2[C@H](c2ccccc2)[C@H]2COC(=O)[C@@H]12 | > 100 µM | > 100 µM | > 100 | > 100 µM | 74.1 | > 100 | > 100 |  | > 100 | > 100 |  |  |  |  |  |  |  |  |  |
